Data taken from US12226387B2, “Compounds for use in cancer cachexia” (priority 2018, dated 2025).
Read-outs that look alike come from different tables or passages of the source.

Assays:
C26 tumour-bearing mice [1] = test: Survival experiment in C26 tumour-bearing mice on ketone-ester diet; type: in vivo, Male Balb/c mice; details: ketone groups (KETrest+KETex) vs control groups, 4.5% ketone ester diet, p<0.01
Procedure: Animal housing and husbandry—Male Balb/c mice were obtained at 11 weeks of age and housed in polycarbonate cages on a 6:00 am to 6:00 pm light cycle under controlled room temperature (21-23° C.) and humidity (40-60%). Mice were individually housed to allow assessment of individual energy intake and physical activity parameters. Cages contained spruce particles (Lignocel® BK 8/15) bedding, and were changed every three weeks. Enrichment was provided by two cotton pellets, which were replaced during cage changing. Mice received one wooden stick to allow correct wearing off of their teeth while on the liquid diets. Solid food was provided in a recess of the metal wire lid at the top of the cage, whilst liquid diets were provided on a daily basis by means of feeding tubes (Bio-Serv™, catalog #14-726-518). Water was provided by a centralized system with a metal dispenser extending into the cage. All procedures were approved by the Animal Ethics Committee of KU Leuven, Belgium (P093/2017). […]
General study protocol and dietary interventions—Mice were individually housed and received ad libitum access to standard chow (Ssniff® R/M-H, Soest, Germany) prior to the start of the study. Food intake was registered and body weight was measured daily for 5 days to assess their normal rate of food intake. […]

C26 tumour-bearing mice [2] = test: Food intake and body weight of C26 tumour-bearing mice; type: in vivo, Male Balb/c mice; details: all experimental groups
Procedure: General study protocol and dietary interventions—Mice were individually housed and received ad libitum access to standard chow (Ssniff® R/M-H, Soest, Germany) prior to the start of the study. Food intake was registered and body weight was measured daily for 5 days to assess their normal rate of food intake. Following this baseline follow-up period, the mice were matched for body weight and food intake where after they were randomly assigned to five experimental groups: i) C26 tumour-bearing mice at rest on control diet (CONrest), ii) C26-bearing mice at rest on ketone diet (KETrest), iii) C26-bearing mice performing voluntary wheel running (WR) on control diet (CONex), iv) C26-bearing mice performing WR on ketone diet (KETex), and v) healthy mice at rest on control diet (WT). Mice were habituated to their experimental diet by a step-wise change of their food supply.
During the first three days, the mice received both their experimental liquid diet (without the addition of ketones) as well as standard chow. From day 3 to 6, mice received only their experimental liquid diets (i.e. 0% KET or CON diet). […]
Body weight, food intake and wheel running parameters—Body weight was measured every 3 days during the food training period. After tumour induction, body weight was measured at 4-day intervals. Food intake and wheel running parameters were measured daily.

[3] = Blood metabolite concentrations (βHB, glucose), 1-hr postprandial; type: in vivo, Male Balb/c mice; details: at all times
Procedure: Blood metabolite concentrations-Blood parameters were measured 1-hr postprandial, every 3 days during the food habituation period, and every 4 days from the day of tumour induction. Blood βHB and glucose levels were measured using the Glucomen Lx plus-meter (Menarini Diagnostics, Firenze, Italy) with Lx β-ketone or Lx glucose strips, respectively. The detection limits for p-hydroxybutyrate were 0.1 to 8.0 millimolar (mM). Blood lactate concentrations were assessed using the Lactate-[…] monitoring system (Arkray, Kyoto, Japan). Measurements were performed according to the manufacturer's instructions.

C26 tumour-bearing mice [4] = test: Voluntary wheel running activity; type: in vivo, Male Balb/c mice; details: KETex, wheel running on ketone ester diet, mean±SEM
Procedure: Tumour induction and exercise intervention—On day 12, tumour-xenografts were induced by interscapular injection of 5×10^5 murine colon carcinoma C26 cells dissolved in 100 μl of phosphate-buffered saline (PBS). C26 cell line was cultured in DMEM (Thermo Fisher Scientific, 41965-062) supplemented with 10% foetal bovine serum (FBS), 1% glutamine (Sigma G7513) and 1% penicillin and streptomycin. WT mice were injected with an identical volume of PBS. Twenty four hours before tumour inoculation, WR mice (CONex and KETex) received a running wheel to induce voluntary exercise, as previously reported in Coletti D et al;. Substrains of inbred mice differ in their physical activity as a behavior. Sci World J 2013: 1-7, 2013. Each wheel was supplied with a commercial cycling computer (2Cycle, 81488) to record physical activity parameters (i.e. running time, distance, and speed). Body weight, food intake and wheel running parameters—Body weight was measured every 3 days during the food training period. After tumour induction, body weight was measured at 4-day intervals. Food intake and wheel running parameters were measured daily. Statistical analysis—Data are presented as mean±SEM. […] Mice from the WT groups were not included in the 2-way ANOVA model, but were added as a reference. Differences in wheel running activity were assessed using an unpaired t-test. […]

[5] = system: murine colon carcinoma C26 cells; test: Tumour weights, C26 tumour-xenografts; type: in vivo, Male Balb/c mice; details: 16 days after C26 inoculation, KET mice, p<0.05 vs CON, mean±SEM
Procedure: Tumour induction and exercise intervention—On day 12, tumour-xenografts were induced by interscapular injection of 5×10^5 murine colon carcinoma C26 cells dissolved in 100 μl of phosphate-buffered saline (PBS). C26 cell line was cultured in DMEM (Thermo Fisher Scientific, 41965-062) supplemented with 10% foetal bovine serum (FBS), 1% glutamine (Sigma G7513) and 1% penicillin and streptomycin. WT mice were injected with an identical volume of PBS. Twenty four hours before tumour inoculation, WR mice (CONex and KETex) received a running wheel to induce voluntary exercise, as previously reported in Coletti D et al;. Substrains of inbred mice differ in their physical activity as a behavior. Sci World J 2013: 1-7, 2013. Each wheel was supplied with a commercial cycling computer (2Cycle, 81488) to record physical activity parameters (i.e. running time, distance, and speed). Behavioural testing and tissue collection experiment—In a second experiment, 9 mice were included in each experimental group and used for behavioural testing and tissue collection. Mice were euthanized 16 days following PBS or tumour cells inoculation. Twenty-four hours before sacrifice the running wheels were removed to eliminate potential acute effects of exercise on variables measured.

C26 tumour-bearing mice [6] = test: Muscle weights (TA, QUAD, GAS); type: in vivo, Male Balb/c mice
Text: Behavioural testing and tissue collection experiment—In a second experiment, 9 mice were included in each experimental group and used for behavioural testing and tissue collection. Mice were euthanized 16 days following PBS or tumour cells inoculation. Twenty-four hours before sacrifice the running wheels were removed to eliminate potential acute effects of exercise on variables measured.

C26 tumour-bearing mice [7] = test: Grip strength of forelimbs and hindlimbs; type: in vivo, Male Balb/c mice; details: day 16, KETrest & KETex vs CONrest & CONex, p<0.05
Procedure: Grip strength—Grip strength of both the forelimbs and the hindlimbs was evaluated, at baseline (day 5) and every 4 days starting at tumour induction, by means of a bar and a grid respectively, connected to an isometric force transducer (BIO-GS3 Grip Strength Test, BIOSEB, Pinellas Park, Florida). Mice were lifted by their tail and positioned to grasp the metal bar or grid, and were pulled horizontally until they could no longer hold the grip. Maximal force (g) was registered during five attempts for both the forelimbs and the hindlimbs. Performance was calculated as the average of the three best attempts. Between attempts the mice were returned to their home cage and given a rest period of 3 min.

M. soleus = test: Ex-vivo muscle contractile properties of M. soleus; type: in vivo, Male Balb/c mice; details: on average, KETrest & KETex vs CONrest & CONex, p<0.05
Procedure: Muscle contractile properties—Ex-vivo muscle contractile properties were assessed as described by Derave W et al; Skeletal muscle properties in a transgenic mouse model for amyotrophic lateral sclerosis: Effects of creatine treatment. Neurobiol Dis 13: 264-272, 2003 and Eijnde B O et al; Effect of muscle creatine content manipulation on contractile properties in mouse muscles. Muscle and Nerve 29: 428-435, 2004.
Mice were anesthetized by an intraperitoneal injection of ketamine-xylazine (10 mg/kg). After dissection of M. soleus and M. extensor digitorum longus (EDL) of both hindlimbs, muscles were mounted vertically on a force transducer (HSE, March-Hugstetten, Germany) and incubated in organ baths containing Krebs-Henseleit solution (118 mM NaCl, 25 mM NaHCO3, 5 mM KCl, 1 mM MgSO4, 1 mM KH2PO4, 2.5 mM CaCl2 and […]). […] Following recovery, resting length (L0) was determined with a micropositioner and an oscilloscope by stimulating the soleus and EDL tetanically for 350 ms at 80 Hz and 120 Hz, respectively, interspersed with 2-min rest intervals. […] Average maximal tension and specific tension (force corrected for muscle cross-sectional area) were calculated for both the twitch and tetanic stimulations. Cross-sectional area was determined by dividing the wet muscle mass by the product of resting muscle length (L0) and the density of mammalian skeletal muscle (1.06 g/cm^3).

[8] = Blood (R)-3-hydroxybutyrate after oral administration of ester
[9] = system: pancreatic cancer cachexia; details: high amounts of ketone salts; cited from earlier work
[10] = in vivo

Q: Which “increase in mean survival time compared to control groups” value (C26 tumour-bearing mice [1]) does the source give for `C[C@@H](O)CCOC(=O)C[C@@H](C)O` [KET, (R)-3-hydroxybutyl-(R)-3-hydroxybutyrate] here?
A: +40%

Q: What about the “increase in median survival time compared to control groups” value (C26 tumour-bearing mice [1]) of the same molecule?
A: +17%

Q: What about the “Body weight over time” value (C26 tumour-bearing mice [2]) of the same molecule?
A: similarly decreased

Q: And the “blood glucose levels compared with CON groups” value [3]?
A: lower

Q: What about the Av distance/day (C26 tumour-bearing mice [4]) of the same molecule?
A: 19.78 ± 1.36 km

Q: What about the Av running speed (C26 tumour-bearing mice [4]) of the same molecule?
A: 2.94 ± 0.12 km/h

Q: What about the tumour weights [5] of the same molecule?
A: 204 ± 32 mg

Q: And the “Tibialis anterior (TA) weight” value (C26 tumour-bearing mice [6]; KET, p<0.05 vs CON, mean±SEM)?
A: 41.6 ± 2.1 mg

Q: What about the “gastrocnemius (GAS) weights between the groups” value (C26 tumour-bearing mice [6]; mouse, in vivo) of the same molecule?
A: similar

Q: What about the “TA weight higher in KET compared with CON” value (C26 tumour-bearing mice [6]; on average) of the same molecule?
A: ~12%

Q: And the “forelimb grip strength vs control groups” value (C26 tumour-bearing mice [7])?
A: higher

Q: What about the “hindlimb grip strength vs control groups” value (C26 tumour-bearing mice [7]) of the same molecule?
A: higher

Q: And the “Peak twitch force of M. soleus higher than in control groups” value (M. soleus)?
A: ~45%

Q: And the “tetanic force of M. soleus higher than in control groups” value (M. soleus)?
A: ~29%

Q: What about the “level of uptake in the gut” value ([8]; consumption of a drink) of the same molecule?
A: surprisingly high

Q: And the “circulating levels of (R)-3-hydroxybutyrate in the blood” value ([8]; in vivo)?
A: high

Q: What about the “period of raised (R)-3-hydroxybutyrate concentrations compared with ketone salts” value ([8]; in vivo) of the same molecule?
A: longer period

Q: What does the source list for `CC(=O)CC(=O)[O-].[Li+]` [lithium acetoacetate]?
A: muscle and body weight loss [9]: inhibition; tumour growth [9]: Reduced

Q: For `CC(O)CC(=O)[O-].[Na+]` (centres unmarked) [sodium hydroxybutyrate], which “muscle and body weight loss” value [9] is on record?
A: inhibition

Q: What about the tumour growth [9] of the same molecule?
A: Reduced

Q: Which “circulating levels of (R)-3-hydroxybutyrate in the blood” value [10] does the source give for “(R)-3-hydroxybutyrate-glycerol partial ester” here?
A: high

Q: What about the “level of uptake in the gut” value [10] of the same molecule?
A: surprisingly high
